Test results as given in ChEMBL document CHEMBL1201862, “PubChem BioAssay data set” (2004).
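Five concentrations, 48 hours, 96-well plates. At the GI50, growth is halved.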 The source made the active and inactive calls. No stated cut-off is given here; in the data, active = GI50 up to about 1.1 µM and inactive = higher.

Key:
Test in all cases: NCI anticancer screen, dose series, 48 h
HCC 2998 = tested on: HCC 2998
A498 = tested on: A498
HL-60 = tested on: HL-60
786-0 = tested on: 786-0
CAKI-1 = tested on: CAKI-1
SF-295 = tested on: SF-295
PC-3 = tested on: PC-3
HT-29 = tested on: HT-29
DU-145 = tested on: DU-145
SF-268 = tested on: SF-268
MOLT-4 = tested on: MOLT-4
LOX IMVI = tested on: LOX IMVI
OVCAR-4 = tested on: OVCAR-4
KM12 = tested on: KM12
MDA-MB-435 = tested on: MDA-MB-435
NCI-H23 = tested on: NCI-H23
OVCAR-3 = tested on: OVCAR-3
OVCAR-8 = tested on: OVCAR-8
CCRF-CEM = tested on: CCRF-CEM

Measured: GI50

COc1c(C=O)c2c(c(OC)c1OC)-c1ccc(OC)c(=O)cc1[C@@H](NC(C)=O)CC2
inactive: OVCAR-4 38.9 µM
active: HCC 2998 0.0637 µM | A498 0.347 µM | HL-60 < 0.01 µM | 786-0 0.132 µM | CAKI-1 0.703 µM | SF-295 0.185 µM | PC-3 0.0375 µM | HT-29 0.0255 µM | DU-145 0.415 µM | SF-268 0.0444 µM | MOLT-4 < 0.01 µM | LOX IMVI 0.015 µM | KM12 0.0134 µM | MDA-MB-435 < 0.01 µM | NCI-H23 0.034 µM | OVCAR-3 0.0327 µM | OVCAR-8 0.0444 µM | CCRF-CEM < 0.0128 µM

CC1=NN2C(c3ccc(C)cc3)=CSC2=NC(C)(C)C1
inactive: HCC 2998 > 100 µM | A498 > 100 µM | HL-60 76.2 µM | 786-0 > 100 µM | SF-295 > 100 µM | HT-29 > 100 µM | SF-268 > 100 µM | MOLT-4 > 100 µM | LOX IMVI > 100 µM | OVCAR-4 > 100 µM | KM12 > 100 µM | NCI-H23 > 100 µM | OVCAR-3 > 100 µM | OVCAR-8 > 100 µM | CCRF-CEM > 100 µM

NCc1c(C(N)=O)ncn1Cc1ccccc1
inactive: HCC 2998 > 100 µM | A498 > 100 µM | HL-60 > 100 µM | 786-0 > 100 µM | CAKI-1 > 100 µM | SF-295 > 100 µM | HT-29 > 100 µM | MOLT-4 > 100 µM | LOX IMVI > 100 µM | OVCAR-4 > 100 µM | NCI-H23 > 100 µM | OVCAR-3 > 100 µM | OVCAR-8 > 100 µM | CCRF-CEM > 100 µM

CC(C)(C)c1cc(O)c2c(c1O)C(=O)CCC2
inactive: HCC 2998 36.7 µM | A498 40.6 µM | HL-60 20.2 µM | 786-0 32.1 µM | CAKI-1 22.5 µM | SF-295 30.2 µM | HT-29 32.9 µM | MOLT-4 23.9 µM | LOX IMVI 28.4 µM | OVCAR-4 30.2 µM | NCI-H23 28.9 µM | OVCAR-3 25.6 µM | OVCAR-8 36.7 µM | CCRF-CEM 35.2 µM

CC(=O)NNc1nc(C)c(C(/C=C/c2ccc(Cl)cc2)=N/NC(=O)C[N+](C)(C)C)s1
inactive: HCC 2998 > 100 µM | A498 > 100 µM | HL-60 > 100 µM | 786-0 > 100 µM | CAKI-1 > 100 µM | SF-295 > 100 µM | HT-29 > 100 µM | SF-268 > 100 µM | MOLT-4 > 100 µM | LOX IMVI > 100 µM | OVCAR-4 > 100 µM | KM12 > 100 µM | NCI-H23 > 100 µM | OVCAR-3 > 100 µM | CCRF-CEM > 100 µM

CCCCCCCCCCCCC/C=C1\C[C@H](O)COC1=O
inactive: HCC 2998 20.9 µM | A498 18.9 µM | HL-60 19.8 µM | 786-0 16 µM | CAKI-1 18.9 µM | SF-295 18.1 µM | HT-29 15.7 µM | SF-268 20.4 µM | OVCAR-4 16.9 µM | KM12 16.3 µM | NCI-H23 20.4 µM | OVCAR-3 17.5 µM | CCRF-CEM 14.3 µM

COc1cc(C(C)c2cc3c(cc2OCCNC(=O)COc2cc4c(cc2C(C)c2cc(OC)c(OC)c(OC)c2)OCO4)OCO3)cc(OC)c1OC (configuration not stated)
inactive: HCC 2998 > 100 µM | A498 > 100 µM | HL-60 > 100 µM | 786-0 49.8 µM | CAKI-1 > 100 µM | SF-295 > 100 µM | HT-29 > 100 µM | SF-268 50.4 µM | MOLT-4 7.13 µM | LOX IMVI 42.3 µM | OVCAR-4 > 100 µM | KM12 > 100 µM | NCI-H23 > 100 µM | OVCAR-3 67.3 µM | OVCAR-8 49.5 µM | CCRF-CEM 30.5 µM

COc1cc2c(cc1O)C(C)Cc1cc3c(cc1N(C)CC2)OCO3 (configuration not stated)
inactive: HCC 2998 5.27 µM | A498 13.2 µM | HL-60 4.61 µM | 786-0 4.35 µM | CAKI-1 12.1 µM | SF-295 2.78 µM | HT-29 12.9 µM | SF-268 5.3 µM | MOLT-4 4.13 µM | LOX IMVI 5.68 µM | OVCAR-4 15.7 µM | KM12 4.15 µM | NCI-H23 4.07 µM | OVCAR-3 3.03 µM | OVCAR-8 9.25 µM | CCRF-CEM 4.59 µM

COc1ccc(C(=O)OC2C=COC(C)C2OC(=O)c2ccc(OC)cc2)cc1 (configuration not stated)
inactive: HCC 2998 > 58.1 µM | A498 > 100 µM | HL-60 10.6 µM | 786-0 28.8 µM | CAKI-1 28.8 µM | SF-295 33.2 µM | HT-29 22.2 µM | SF-268 15.8 µM | MOLT-4 16.3 µM | LOX IMVI 14.7 µM | OVCAR-4 24.9 µM | KM12 19.1 µM | NCI-H23 16.4 µM | OVCAR-3 16.6 µM | OVCAR-8 23.6 µM | CCRF-CEM 7 µM

COc1ccc(/C=C/C(=O)C(C)(C)CN2CCCCC2)cc1
inactive: HCC 2998 18.3 µM | A498 16.9 µM | HL-60 18.6 µM | 786-0 16 µM | SF-295 38.1 µM | HT-29 16.6 µM | SF-268 22.1 µM | MOLT-4 21.8 µM | LOX IMVI 14.9 µM | OVCAR-4 7.36 µM | KM12 22.1 µM | NCI-H23 24.5 µM | OVCAR-3 18.2 µM | OVCAR-8 19 µM | CCRF-CEM 24.2 µM

CC1=CCC[C@@]2(C)C(CC[C@@H]2C(C)/C=C/C(C)C)c2ccc(cc2C(=O)O)C[C@@H](O)CC1 (some centres not stated)
inactive: HCC 2998 9.93 µM | A498 20.2 µM | HL-60 9.79 µM | 786-0 14.6 µM | CAKI-1 17 µM | SF-295 9.27 µM | HT-29 5.13 µM | SF-268 14.2 µM | MOLT-4 11.6 µM | LOX IMVI 4.55 µM | OVCAR-4 12.1 µM | KM12 11 µM | NCI-H23 > 10 µM | OVCAR-3 13.7 µM | OVCAR-8 15.2 µM | CCRF-CEM 5.09 µM

CN(C)CCNC(=O)c1cccc2nc3c(Cl)cccc3nc12
inactive: HCC 2998 8.85 µM | A498 4.63 µM | HL-60 6.43 µM | 786-0 7.98 µM | CAKI-1 > 20.7 µM | SF-295 4.8 µM | HT-29 3.18 µM | MOLT-4 2.38 µM | LOX IMVI 3.14 µM | OVCAR-4 6.31 µM | KM12 5.75 µM | NCI-H23 5.61 µM | OVCAR-3 6.38 µM | OVCAR-8 4.46 µM

O=C(O)CC/C(=N\Nc1nsc2ccccc12)c1ccc(Cl)cc1
inactive: HCC 2998 17.5 µM | A498 37 µM | HL-60 23.6 µM | 786-0 17.8 µM | CAKI-1 23.3 µM | SF-295 32.8 µM | PC-3 20.9 µM | HT-29 29.8 µM | DU-145 30.3 µM | SF-268 21.9 µM | MOLT-4 21.9 µM | LOX IMVI 12.2 µM | OVCAR-4 20.8 µM | KM12 22.9 µM | MDA-MB-435 27.5 µM | NCI-H23 21.2 µM | OVCAR-3 18.3 µM | OVCAR-8 43.5 µM | CCRF-CEM 6.84 µM

COc1cccc(C(NC2=NCCC=N2)c2cc3c(cc2O)OCO3)c1O (configuration not stated)
inactive: HCC 2998 19.9 µM | A498 27.7 µM | HL-60 8.93 µM | 786-0 12.4 µM | CAKI-1 49.1 µM | SF-295 42.2 µM | PC-3 29.1 µM | HT-29 38.5 µM | DU-145 > 100 µM | SF-268 34.8 µM | MOLT-4 23.6 µM | LOX IMVI 19.5 µM | KM12 32.8 µM | MDA-MB-435 29 µM | NCI-H23 32.1 µM | OVCAR-3 22 µM | OVCAR-8 10.4 µM | CCRF-CEM 10.8 µM

COC(=O)C1N=CSCC1(C)O (configuration not stated)
inactive: HCC 2998 > 100 µM | A498 > 100 µM | HL-60 > 100 µM | 786-0 > 100 µM | CAKI-1 > 100 µM | SF-295 > 100 µM | HT-29 > 100 µM | SF-268 > 100 µM | MOLT-4 > 100 µM | LOX IMVI > 100 µM | OVCAR-4 > 100 µM | KM12 > 100 µM | NCI-H23 > 100 µM | OVCAR-3 > 100 µM | OVCAR-8 > 100 µM | CCRF-CEM > 100 µM

O=C(/C=C\c1cccc2ccccc12)c1ccc(Cl)cc1Cl
inactive: HCC 2998 32.4 µM | A498 > 100 µM | HL-60 18.2 µM | 786-0 18.7 µM | CAKI-1 47.5 µM | SF-295 20.5 µM | HT-29 17.9 µM | SF-268 19.6 µM | MOLT-4 28.5 µM | OVCAR-4 43.6 µM | KM12 17.2 µM | NCI-H23 40.6 µM | OVCAR-3 20.2 µM | OVCAR-8 18.7 µM | CCRF-CEM 17.3 µM

COC(=O)[C@@]1(O)CC(C)C=C1C=O (some centres not stated)
inactive: HCC 2998 66.5 µM | A498 > 100 µM | HL-60 22.1 µM | 786-0 60.5 µM | CAKI-1 > 100 µM | SF-295 > 100 µM | HT-29 39.4 µM | SF-268 43.2 µM | MOLT-4 60.8 µM | LOX IMVI 53.5 µM | OVCAR-4 > 100 µM | KM12 67.5 µM | NCI-H23 > 100 µM | OVCAR-3 53.6 µM | OVCAR-8 > 100 µM | CCRF-CEM 25.3 µM
